In US20240217922A1, “MODULATORS OF SORTILIN ACTIVITY” (Insusense ApS, priority 2021, published 2024):

Target: hSortilin (Homo sapiens (Human), UniProt Q99523)
Assay: Neurotensin scintillation proximity assay, [125I]-neurotensin
Conditions: displacement of [125I]-neurotensin binding to 6his-Sortilin; average of at least 2 determinations; read-out: IC50 [125I]Neurotensin SPA

Sequence of hSortilin (Q99523 78-831): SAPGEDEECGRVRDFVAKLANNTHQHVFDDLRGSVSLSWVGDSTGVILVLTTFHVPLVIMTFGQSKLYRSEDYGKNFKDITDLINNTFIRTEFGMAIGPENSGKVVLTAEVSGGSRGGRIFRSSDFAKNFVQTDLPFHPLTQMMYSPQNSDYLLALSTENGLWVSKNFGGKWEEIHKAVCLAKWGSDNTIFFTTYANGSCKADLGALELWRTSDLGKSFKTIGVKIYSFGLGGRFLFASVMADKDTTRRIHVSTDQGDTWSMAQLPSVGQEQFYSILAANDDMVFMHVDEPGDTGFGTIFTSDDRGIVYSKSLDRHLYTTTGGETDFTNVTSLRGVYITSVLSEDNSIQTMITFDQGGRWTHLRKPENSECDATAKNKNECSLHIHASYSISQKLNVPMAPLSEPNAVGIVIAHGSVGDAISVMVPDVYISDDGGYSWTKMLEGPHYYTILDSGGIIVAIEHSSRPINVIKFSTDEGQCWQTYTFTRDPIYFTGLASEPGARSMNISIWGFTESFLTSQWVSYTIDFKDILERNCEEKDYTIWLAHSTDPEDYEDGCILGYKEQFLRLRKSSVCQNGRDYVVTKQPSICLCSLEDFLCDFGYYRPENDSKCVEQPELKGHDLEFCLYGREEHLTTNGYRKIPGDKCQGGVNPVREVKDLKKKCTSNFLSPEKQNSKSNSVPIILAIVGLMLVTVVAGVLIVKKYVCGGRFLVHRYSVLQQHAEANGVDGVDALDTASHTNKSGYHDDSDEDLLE

IC50: 0.29 µM
Structure (SMILES): CC[C@H](C)[C@H](NC(C)=O)C(=O)N[C@@H](CCC(C)(C)C)C(=O)O [Example 16, (S)-2-((2S,3S)-2-Acetamido-3-methylpentanamido)-5,5-dimethylhexanoic Acid]
